Data set [1] in a line: Compressibility (tensile strength of compressed tablet). In kind it is physicochemical. The note with it: for Diameter / Hardness / Thickness / Tensile strength: 80 mg compressed at 10 KN; for Diameter / Hardness / Thickness: after 24 h at room temperature; for Tensile strength: T=2H/πDL. How it is done:
ENERPAC manual tablet press was used for compression. 80 mg of Form CSVI and Form I in the prior art were weighed and added into the dies of a 16 mm round tooling, compressed at 10 KN manually, then stored at room temperature for 24 h until complete elastic recovery, diameter (D) and thickness (L) were tested with caliper. Hardness (H) was tested with an intelligent tablet hardness tester. Tensile strength of the powder was calculated with the following formula: T=2H/πDL. Under a certain force, the greater the tensile strength, the better the compressibility.

Another data set can be described thus: Grinding stability. In kind it is physicochemical. The settings on record: ground manually in a mortar. The protocol: Solid sample of Form CSVI was ground manually for 5 minutes in a mortar.
Data set [2] in a line: Hygroscopicity by dynamic vapor sorption (DVS). In kind it is physicochemical. The settings on record: for Weight gain: DVS. How it is done: Dynamic Vapor Sorption (DVS) was measured via an SMS (Surface Measurement Systems Ltd.) intrinsic DVS instrument. The instrument control software is DVS-Intrinsic control software. Typical Parameters for DVS test are as follows: • Temperature: 25° C. • Gas and flow rate: N2, 200 mL/min • RH range: 0% RH to 95% RH
Dynamic vapor sorption (DVS) analyzer was applied to evaluate the hygroscopicity of Form CSVI and Form I in the prior art with an appropriate amount. The weight gains at each relative humidity were recorded in a cycle of 0-95%-0 RH.

The nature of data set [3]: Pressure stability (tableting, XRPD). The data set is classed as physicochemical. How it is done:
ENERPAC manual tablet press was used for compression. 20 mg of Form CSVI were compressed into tablets under different pressures with the dies of a 16 mm round tooling. Crystalline form before and after tableting were checked by XRPD.

Data set [4] is described as follows: Solubility in simulated gastric fluid (SGF), HPLC. In kind it is physicochemical. How it is done:
When solubility test is used to predict the in vivo performance of a drug, it is critical to simulate in vivo conditions as closely as possible. Simulated gastric fluid (SGF) can be used to simulate the condition in vivo and predict the effects of eating, thus solubility in this medium is closer to that in vivo. 15 mg of Form CSVI was suspended into 2.0 mL of SGF. After equilibrated for 1 h at 37° C., concentrations of the saturated solutions were measured by HPLC.

Data set [5] in a line: Flowability (compressibility index). In kind it is physicochemical. The protocol: Compressibility index is usually utilized to evaluate the flowability of powder or granules during the drug product process. Compressibility index test method is as follows: a certain amount of powder was added into a measuring cylinder and bulk volume was recorded. Then the powder was tapped to make it in the tightest state and the tapped volume was recorded.
The bulk density (ρ0), tapped density (ρf) were calculated and compressibility index was calculated according to c=(ρf−π0)/ρf.

The nature of data set [6]: Stability of crystalline form in drug product process. The data set is classed as physicochemical. The note with it: XRPD, tablet per Tables 11 and 12. From the text:
The formulation and preparation process of Form CSVI are shown in Table 11 and Table 12, respectively.

Data set [7] can be described thus: Adhesiveness (amount sticking to the punch). In kind it is physicochemical. The note with it: 30 mg, Φ8 mm tooling, 10 KN held for 30 s. The protocol:
30 mg of Form CSVI and Form I in the prior art were weighed and then added into the dies of Φ8 mm round tooling, compressed at 10 KN and held for 30 s. The punch was weighed and amount of material sticking to the punch was calculated. The maximum amount and average amount of material sticking to the punch during the compression were recorded.

Data set [8] can be described thus: Physicochemical stability of drug substance on storage (XRPD, HPLC). The settings on record: for Chemical purity during storage / Time for which crystalline state doesn't change / kept stable: open and sealed package. How it is done:
An appropriate amount of Form CSVI were stored under different conditions of 25° C./60% RH and 40° C./75% RH. Crystalline form and chemical purity were checked by XRPD and HPLC, respectively.

SMILES strings stand for the structures. In brackets after ≈: the same amount, converted by molar mass. Entries after “also recorded” stand apart in the source; their conditions may differ. Like-named read-outs stand apart in the source and are kept apart here.

As a reminder, the solubility is the dissolved amount per volume that the medium holds. `CC(C)c1cc(Oc2c(Cl)cc(-n3nc(C#N)c(=O)[nH]c3=O)cc2Cl)n[nH]c1=O` [Form CSVI, 2-(3,5-dichloro-4-((5-isopropyl-6-oxo-1,6-dihydropyridazin-3-yl)oxy)phenyl)-3,5-dioxo-2,3,4,5-tetrahydro-1,2,4-triazine-6-carbonitrile]: in data set [1], the “Compressibility (in words)” value is “better compressibility”, the Diameter was 6.06 mm, the Hardness was 13.4 N and the Thickness is reported as 2.05 mm. The compound also showed a Tensile strength in [1] of 0.69 MPa. Further, the “Grinding stability (in words)” value in “Grinding stability” is “remained stable; also recorded: doesn't change after grinding”. Further, in [2] (25° C./80% RH), the Weight gain is given as 0.07%. Further, the “Crystal form after DVS test” value in [2] (XRPD before and after DVS) is on record as “does not change”. In addition, the “Hygroscopicity (in words)” value in [2] (from weight gain at 25° C./80% RH) was “non or almost non hygroscopic”. Further, the “Stability under different pressures (in words)” value in [3] (3, 7, 14 kN) is reported as “good stability under different pressures”. For the same compound, the “Solid form after tableting” value in [3] (Pressure 3 kN) is “Form CSVI”. Moreover, the “Solid form after tableting” value in data set [3] (Pressure 7 kN) was “Form CSVI”. Also, the “Solid form after tableting” value in [3] (Pressure 14 kN) was “Form CSVI”. In data set [4] (SGF, 1 h), the “Solubility of Form CSVI relative to Form I in the prior art” value is recorded as “about 2 times”. Besides, the solubility at 1 h in [4] (simulated gastric fluid (SGF), simulated gastric fluid, thermodynamic from solid, SGF, equilibrated for 1 h at 37° C.) is 2.1 µg/mL (≈ 4.83 µM). Besides, the “Flowability compared with Form I in the prior art” value in data set [5] is recorded as “superior to that of Form I in the prior art”. The “Crystalline form before and after the formulation process” value in [6] is recorded as “remained stable”. Besides, in data set [7], the “Average amount sticking to the punch” value is 0.05 mg and the “Maximum amount sticking to the punch” value was determined as 0.10 mg. Besides, in data set [8] (25° C./60% RH Open, 6 months), the Purity came to 99.73% and the “Solid Form” value was “Form CSVI”. In data set [8] (25° C./60% RH Sealed, 6 months), the Purity came out at 99.74% and the “Solid Form” value is recorded as “Form CSVI”. For the same compound, in data set [8] (25° C./60% RH), the “Chemical purity during storage” value is “above 99.7%” and the “Time for which crystalline state doesn't change / kept stable” value is on record as “at least 6 months”. For the same compound, in [8] (40° C./75% RH Open, 6 months), the Purity was 99.73% and the “Solid Form” value is listed as “Form CSVI”. For the same compound, in [8] (40° C./75% RH Sealed, 6 months), the Purity was 99.73% and the “Solid Form” value is on record as “Form CSVI”. In [8] (40° C./75% RH), the “Chemical purity during storage” value is recorded as “above 99.7%” and the “Time for which crystalline state doesn't change / kept stable” value is “at least 6 months”. In data set [8] (Initial), the Purity turned out to be 99.73% and the “Solid Form” value is “Form CSVI”.
`CC(C)c1cc(Oc2c(Cl)cc(-n3nc(C#N)c(=O)[nH]c3=O)cc2Cl)n[nH]c1=O` [Form I in the prior art, 2-(3,5-dichloro-4-((5-isopropyl-6-oxo-1,6-dihydropyridazin-3-yl)oxy)phenyl)-3,5-dioxo-2,3,4,5-tetrahydro-1,2,4-triazine-6-carbonitrile, reference compound]: in data set [1], the Diameter was 6.06 mm, the Hardness is 7.4 N, the Thickness turned out to be 2.12 mm and the Tensile strength is listed as 0.37 MPa. Further, the “Compressibility (in words)” value in data set [1] (listed as crystalline form I) was “poor compressibility”. In addition, the “Grinding stability (in words)” value in the data set “Grinding stability” (listed as crystalline form I) is “most of the crystalline form I transform to amorphous after grinding”. Moreover, in data set [2] (25° C./80% RH), the “Weight gain of Form I relative to Form CSVI” value is “about 2 times” and the Weight gain was determined as 0.13%. In addition, the “Solubility (in words)” value in data set [4] (inventors' evaluation of repeated Form I) was “low solubility”. Moreover, in data set [5] (class by compressibility index, ICH Q4B Annex 13), the Flowability entry was “very poor”. In data set [7], the “Average amount sticking to the punch” value was determined as 0.25 mg and the “Maximum amount sticking to the punch” value came to 0.30 mg.
Regarding `CC(C)c1cc(Oc2c(Cl)cc(-n3nc(C#N)c(=O)[nH]c3=O)cc2Cl)n[nH]c1=O` [crystalline form F, reference compound], the “Hygroscopicity (in words)” value in [2] (according to WO2020010068A1 and the inventors' experimental study, conditions not given) is listed as “high hygroscopicity”.

Source of the values: US12595254B2, “Crystal form of Resmetirom, preparation method therefor, and use thereof” (CRYSTAL PHARMACEUTICAL (SUZHOU) CO., LTD., priority 2020, dated 2026).
